{"source": "ChEMBL document CHEMBL6071148", "about": "“Synthesis and biological evaluation of novel 3,6- amide and thioamide substituted- 2,3,4,9-tetrahydro-1H-carbazoles for anti-cancer activity” (Eur J Med Chem, 2024)", "key": {"[1]": {"system": "Human papillomavirus", "experiment": "Antiviral activity against Human papillomavirus", "assay_type": "functional, organism-based"}, "[2]": {"system": "MCF7", "experiment": "Cytotoxicity against human MCF7 cells assessed as inhibition of cell proliferation incubated for 72 hrs by MTT assay", "assay_type": "functional, cell-based", "conditions": "MCF7, 72 h"}, "[3]": {"system": "A549", "experiment": "Cytotoxicity against human A549 cells assessed as inhibition of cell proliferation incubated for 72 hrs by MTT assay", "assay_type": "functional, cell-based", "conditions": "A549, 72 h"}, "[4]": {"system": "HCT-116", "experiment": "Cytotoxicity against human HCT-116 cells assessed as inhibition of cell proliferation incubated for 72 hrs by MTT assay", "assay_type": "functional, cell-based", "conditions": "HCT-116, 72 h"}, "[5]": {"experiment": "Cytotoxicity against human MRC5 cells assessed as inhibition of cell proliferation incubated for 72 hrs by MTT assay", "assay_type": "toxicity, cell-based"}, "[6]": {"system": "A549", "experiment": "Cytotoxicity against human A549 cells assessed as reduction in cell viability incubated for 48 hrs by MTT assay", "assay_type": "functional, cell-based", "conditions": "A549, 48 h"}, "[7]": {"experiment": "Cytotoxicity against human SGC cells assessed as reduction in cell viability incubated for 48 hrs by MTT assay", "assay_type": "functional, cell-based"}, "[8]": {"system": "K562", "experiment": "Cytotoxicity against human K562 cells assessed as reduction in cell viability incubated for 48 hrs by MTT assay", "assay_type": "functional, cell-based", "conditions": "K562, 48 h"}, "[9]": {"system": "HCT-116", "experiment": "Cytotoxicity against human HCT-116 cells assessed as reduction in cell viability incubated for 48 hrs by MTT assay", "assay_type": "functional, cell-based", "conditions": "HCT-116, 48 h"}, "[10]": {"experiment": "Cytotoxicity against human KB-R cells assessed as reduction in cell viability incubated for 48 hrs by MTT assay", "assay_type": "functional, cell-based"}, "[11]": {"target": "Acetylcholinesterase (Homo sapiens, UniProt P22303)", "sequence (P22303 whole entry)": "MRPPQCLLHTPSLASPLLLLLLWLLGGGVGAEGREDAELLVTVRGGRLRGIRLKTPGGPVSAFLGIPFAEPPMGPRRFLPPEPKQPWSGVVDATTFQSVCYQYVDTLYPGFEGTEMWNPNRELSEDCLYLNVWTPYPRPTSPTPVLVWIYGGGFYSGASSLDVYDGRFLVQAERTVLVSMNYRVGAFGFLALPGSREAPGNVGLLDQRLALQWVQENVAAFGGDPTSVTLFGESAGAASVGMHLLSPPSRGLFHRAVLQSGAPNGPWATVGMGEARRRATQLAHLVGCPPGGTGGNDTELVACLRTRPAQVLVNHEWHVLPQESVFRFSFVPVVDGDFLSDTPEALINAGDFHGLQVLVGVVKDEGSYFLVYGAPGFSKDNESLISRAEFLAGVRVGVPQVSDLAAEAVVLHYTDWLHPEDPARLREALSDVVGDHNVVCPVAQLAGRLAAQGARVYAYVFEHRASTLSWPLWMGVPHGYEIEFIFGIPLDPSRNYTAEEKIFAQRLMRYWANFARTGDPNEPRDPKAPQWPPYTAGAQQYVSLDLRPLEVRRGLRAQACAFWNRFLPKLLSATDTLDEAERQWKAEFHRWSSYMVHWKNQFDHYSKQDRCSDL", "experiment": "Inhibition of AChE (unknown origin) by Ellman's method"}, "[12]": {"system": "A549", "experiment": "Induction of cell cycle arrest in human A549 cells assessed as accumulation of cells at G1 phase at IC50 incubated for 24 hrs by PI staining based flow cytometric analysis (reference value: 37.40 +/- 2.40%)", "assay_type": "functional"}, "[13]": {"system": "A549", "experiment": "Induction of cell cycle arrest in human A549 cells assessed as accumulation of cells at G2 phase at IC50 incubated for 24 hrs by PI staining based flow cytometric analysis (reference value: 23.45 +/- 1.62%)", "assay_type": "functional"}, "[14]": {"system": "A549", "experiment": "Induction of cell cycle arrest in human A549 cells assessed as accumulation of cells at G1 phase at IC50 incubated for 48 hrs by PI staining based flow cytometric analysis (reference value: 53.5 +/- 4.01%)", "assay_type": "functional"}, "[15]": {"system": "A549", "experiment": "Induction of cell cycle arrest in human A549 cells assessed as accumulation of cells at G2 phase at IC50 incubated for 48 hrs by PI staining based flow cytometric analysis (reference value: 38.15 +/- 1.80%)", "assay_type": "functional"}, "[16]": {"system": "MCF7", "experiment": "Induction of cell cycle arrest in human MCF7 cells assessed as accumulation of cells at G1 phase at IC50 incubated for 24 hrs by PI staining based flow cytometric analysis relative to control", "assay_type": "functional"}, "[17]": {"system": "MCF7", "experiment": "Induction of cell cycle arrest in human MCF7 cells assessed as accumulation of cells at S phase at IC50 incubated for 24 hrs by PI staining based flow cytometric analysis relative to control", "assay_type": "functional"}, "[18]": {"system": "MCF7", "experiment": "Induction of cell cycle arrest in human MCF7 cells assessed as accumulation of cells at G2 phase at IC50 incubated for 24 hrs by PI staining based flow cytometric analysis relative to control", "assay_type": "functional"}, "[19]": {"system": "HCT-116", "experiment": "Induction of cell cycle arrest in human HCT-116 cells assessed as accumulation of cells at G2 phase at IC50 incubated for 24 hrs by PI staining based flow cytometric analysis relative to control", "assay_type": "functional"}, "[20]": {"system": "HCT-116", "experiment": "Induction of cell cycle arrest in human HCT-116 cells at IC50 incubated for 48 hrs by PI staining based flow cytometric analysis", "assay_type": "functional"}, "[21]": {"system": "MCF7", "experiment": "Induction of DNA damage in human MCF7 cells assessed as gammaH2AX positive cells at IC50 incubated for 48 hrs by PI staining based flow cytometric analysis (reference value: 7.58 +/- 1.23%)", "assay_type": "functional"}, "[22]": {"system": "HCT-116", "experiment": "Induction of DNA damage in human HCT-116 cells assessed as gammaH2AX positive cells at IC50 incubated for 48 hrs by PI staining based flow cytometric analysis (reference value: 6.24 +/- 1.94%)", "assay_type": "functional"}, "[23]": {"system": "A549", "experiment": "Induction of DNA damage in human A549 cells assessed as gammaH2AX positive cells at IC50 incubated for 48 hrs by PI staining based flow cytometric analysis (reference value: 4.90 +/- 0.50%)", "assay_type": "functional"}, "[24]": {"system": "A549", "experiment": "Induction of apoptosis in human A549 cells assessed as apoptotic rate at IC50 incubated for 24 hrs by Annexin-V and 7-AAD staining based flow cytometric analysis (reference value: 4.56 +/- 0.81%)", "assay_type": "functional"}, "[25]": {"system": "A549", "experiment": "Induction of apoptosis in human A549 cells assessed as apoptotic rate at IC50 incubated for 48 hrs by Annexin-V and 7-AAD staining based flow cytometric analysis (reference value: 6.56 +/- 1.17%)", "assay_type": "functional"}, "[26]": {"system": "HCT-116", "experiment": "Induction of apoptosis in human HCT-116 cells assessed as increase in apoptotic cells incubated for 24 hrs by Annexin-V and 7-AAD staining based flow cytometric analysis (reference value: 8.10 +/- 2.16%)", "assay_type": "functional"}, "[27]": {"system": "HCT-116", "experiment": "Induction of apoptosis in human HCT-116 cells assessed as increase in apoptotic cells incubated for 48 hrs by Annexin-V and 7-AAD staining based flow cytometric analysis (reference value: 6.82 +/- 1.05%)", "assay_type": "functional"}, "[28]": {"system": "MCF7", "experiment": "Induction of apoptosis in human MCF7 cells assessed as increase in apoptotic cells incubated for 24 hrs by Annexin-V and 7-AAD staining based flow cytometric analysis (reference value: 5.70 +/- 1.56%)", "assay_type": "functional"}, "[29]": {"system": "MCF7", "experiment": "Induction of apoptosis in human MCF7 cells assessed as increase in apoptotic cells incubated for 48 hrs by Annexin-V and 7-AAD staining based flow cytometric analysis (reference value: 7.53 +/- 1.16%)", "assay_type": "functional"}}, "note": "Activity calls are given as the source filed them. The calls are words filed in the database; no cut-off is given here.", "data": [{"smiles": "O=C(N[C@@H]1CCCc2c1[nH]c1ccc(Cl)cc21)c1ccccn1", "values": [{"measurement": "IC50", "setting": "[1]", "value": 5, "unit": "nM"}]}, {"smiles": "CC(=O)NC1CCc2[nH]c3ccc(S(N)(=O)=O)cc3c2C1", "note": "(stereo not given)", "values": [{"measurement": "IC50", "setting": "[2]", "value": "> 50", "unit": "µM"}, {"measurement": "IC50", "setting": "[3]", "value": "> 50", "unit": "µM"}, {"measurement": "IC50", "setting": "[4]", "value": "> 50", "unit": "µM"}, {"measurement": "IC50 at 72 h", "setting": "[5]", "value": "> 50", "unit": "µM"}]}, {"smiles": "CC(=O)Nc1ccc2[nH]c3c(c2c1)CC(NC(=O)c1ccc(Br)o1)CC3", "note": "(stereo not given)", "values": [{"measurement": "IC50", "setting": "[2]", "value": "> 50", "unit": "µM"}, {"measurement": "IC50", "setting": "[3]", "value": "> 50", "unit": "µM"}, {"measurement": "IC50", "setting": "[4]", "value": "> 50", "unit": "µM"}, {"measurement": "IC50 at 72 h", "setting": "[5]", "value": "> 50", "unit": "µM"}]}, {"smiles": "CCN(CC)C1CCc2c(n(C)c3ccccc23)C1=O", "note": "(stereo not given)", "values": [{"measurement": "IC50", "setting": "[6]", "value": 110, "unit": "µM"}, {"measurement": "IC50", "setting": "[7]", "value": 24.4, "unit": "µM"}, {"measurement": "IC50", "setting": "[8]", "value": 17.3, "unit": "µM"}, {"measurement": "IC50", "setting": "[9]", "value": 2960, "unit": "nM"}, {"measurement": "IC50", "setting": "[10]", "value": 118, "unit": "µM"}]}, {"smiles": "O=C1[C@H](O)C[C@]23CCCN1[C@@H]2c1c([nH]c2ccccc12)CC3", "values": [{"measurement": "IC50", "setting": "[11]", "value": 38.5, "unit": "µM"}]}, {"smiles": "CC(=O)Nc1ccc2[nH]c3c(c2c1)CC(NC(C)=O)CC3", "note": "(stereo not given)", "values": [{"measurement": "IC50", "setting": "[2]", "value": "> 50", "unit": "µM"}, {"measurement": "IC50", "setting": "[3]", "value": "> 50", "unit": "µM"}, {"measurement": "IC50", "setting": "[4]", "value": "> 50", "unit": "µM"}, {"measurement": "IC50 at 72 h", "setting": "[5]", "value": "> 50", "unit": "µM"}]}, {"smiles": "CC(=O)Nc1ccc2[nH]c3c(c2c1)CC(NC(=O)c1ccc(C)o1)CC3", "note": "(stereo not given)", "values": [{"measurement": "IC50", "setting": "[2]", "value": "> 50", "unit": "µM"}, {"measurement": "IC50", "setting": "[3]", "value": "> 50", "unit": "µM"}, {"measurement": "IC50", "setting": "[4]", "value": "> 50", "unit": "µM"}, {"measurement": "IC50 at 72 h", "setting": "[5]", "value": "> 50", "unit": "µM"}]}, {"smiles": "O=C1c2c(O)ccc(O)c2C(=O)c2c(NCCNCCO)ccc(NCCNCCO)c21", "note": "[MITOXANTRONE]", "values": [{"measurement": "IC50", "setting": "[2]", "value": 0.018, "unit": "µM"}, {"measurement": "IC50", "setting": "[3]", "value": 0.164, "unit": "µM"}, {"measurement": "IC50", "setting": "[4]", "value": 0.127, "unit": "µM"}, {"measurement": "IC50 at 72 h", "setting": "[5]", "value": 0.517, "unit": "µM"}, {"measurement": "Activity", "setting": "[12]", "value": 34.62, "unit": "%"}, {"measurement": "Activity", "setting": "[13]", "value": 20.2, "unit": "%"}, {"measurement": "Activity", "setting": "[14]", "value": 48.61, "unit": "%"}, {"measurement": "Activity", "setting": "[15]", "value": 29.8, "unit": "%"}, {"measurement": "Activity", "setting": "[16]", "value": 44.4, "unit": "%"}, {"measurement": "Activity", "setting": "[17]", "value": 17.9, "unit": "%"}, {"measurement": "Activity", "setting": "[18]", "value": 33.2, "unit": "%"}, {"measurement": "Activity", "setting": "[19]", "value": 26.3, "unit": "%"}, {"measurement": "Activity", "setting": "[20]", "value": "Active"}, {"measurement": "Activity", "setting": "[21]", "value": 23.01, "unit": "%"}, {"measurement": "Activity", "setting": "[22]", "value": 32.47, "unit": "%"}, {"measurement": "Activity", "setting": "[23]", "value": 14.22, "unit": "%"}, {"measurement": "Activity", "setting": "[24]", "value": 30.26, "unit": "%"}, {"measurement": "Activity", "setting": "[25]", "value": 32.27, "unit": "%"}, {"measurement": "Activity", "setting": "[26]", "value": 32.01, "unit": "%"}, {"measurement": "Activity", "setting": "[27]", "value": 31.1, "unit": "%"}, {"measurement": "Activity", "setting": "[28]", "value": 11.55, "unit": "%"}, {"measurement": "Activity", "setting": "[29]", "value": 67.63, "unit": "%"}]}]}
